According to US20070032551A1, “Salt of dimethylaminomethyl-phenyl-cyclohexane and crystalline forms thereof” (GRUENENTHAL GMBH, priority 2005, published 2007):

Columns and labels:
[1] = Damp storage and drying of fumarate and hydrochloride (Example E9); type: physicochemical; conditions: for change in the crystalline form (X-ray diffraction diagrams): after damp storage and drying; for DW (dry weight), starting value / WC (Karl Fischer water content), starting value: before the start of the storage
Protocol: Fumarate and hydrochloride according to Example E8 are first stored at 25° C. and 75% and 95% relative atmospheric humidity for 7 days and thereafter at 50° C. in vacuo in a drying cabinet for 7 days. Before the start of the storage, the X-ray diffraction diagrams (XRD), DSC for determination of transition points (Tp) and dry weight (DW) and the Karl Fischer water content (WC) are determined, and the same values are determined after the damp storage and drying. The X-ray diffraction diagrams show no change in the crystalline forms A and D after damp storage and drying. The starting values for the hydrochloride are Tp=116.27° C., DW=6.35% and WC=8.00%. The starting values for the fumarate are Tp=93.11° C. and 175.14° C., DW=0 and WC=0.2%. The results are given in Tables 7 (75% relative atmospheric humidity) and 8 (95% relative atmospheric humidity).

[2] = Water uptake of fumarate and hydrochloride by DVS (Example E8); type: physicochemical; conditions: 25° C.
Protocol: (§1) The water uptake is determined by means of dynamic water vapor uptake (dynamic vapor sorption, DVS) with the DVS-1 apparatus from Surface Measurement Systems Ltd. The sample is placed in a platinum crucible on the tip of a microbalance. The sample is then first equilibrated at 50% relative atmospheric humidity and subsequently subjected to a predefined measurement program. The temperature is 25° C. The change in weight of the sample after a stepwise increase in the relative atmospheric humidity by in each case 10% to 90% is determined.

[3] = Solubility (general statement)
[4] = Stability at elevated temperature, HPLC and FT Raman (Example E7); type: physicochemical; conditions: for stability at elevated temperature (in words): open and closed vessels
Protocol: The crystalline forms are stored in open and closed vessels and possible changes are measured as stability parameters by chromatography (HPLC) after a given time.

[5] = Stability under pressure, pressing of tablets (Example E5); type: physicochemical; conditions: 100 MPa in vacuo, 60 minutes
Protocol: The fumarate prepared according to Example C3 is introduced into a tablet press and pressed to a tablet under a pressure of 100 MPa in vacuo for 60 minutes.

[6] = Water uptake by dynamic vapor sorption (Example E6); type: physicochemical; conditions: 25° C.; for crystalline form present at the end of the DVS measurement: fumarate; for water uptake: DVS
Protocol: as §1, with “sample” for “sample after a stepwise increase in the relative atmospheric humidity by in each case 10% to 90%”

[7] = Stability under grinding conditions (Example E4); type: physicochemical; conditions: for crystalline form after trituration: pestle in a mortar dish, 5 minutes; for crystalline form after grinding: agate ball mill, 20 Hz, room temperature, 180 minutes
Protocol: The fumarate prepared according to Example C3 is triturated with a pestle in a mortar dish for 5 minutes.
The fumarate prepared according to Example A1 is introduced into an agate ball mill (Retsch MM200 mixing mill with 5 mm agate balls) and ground at 20 Hz and room temperature for 180 minutes.

[8] = Storage at room temperature in high and low atmospheric humidity, crystal form by Raman (Examples E1-E3, B1); type: physicochemical; conditions: for crystalline form after storage (Raman) / crystalline form after storage: room temperature
Protocol: Unless stated otherwise, the crystal forms are determined by comparison of the Raman spectra.
a) 30 mg of the amorphous fumarate prepared according to Example Bi are stored at room temperature and 75% relative atmospheric humidity for 5 days.
b) 30 mg of the amorphous fumarate prepared according to Example B2 are stored at room temperature and 90% relative atmospheric humidity for 3 days.
c) 30 mg of the amorphous fumarate prepared according to Example B2 are stored at room temperature and 53% relative atmospheric humidity for 2 months.
d) 30 mg of the amorphous fumarate prepared according to Example B2 are stored at room temperature and 22% relative atmospheric humidity for 2 months. Thereafter, the amorphous product is still present.
The fumarate prepared according to Example C3 is stored at room temperature and 75% relative atmospheric humidity, and after 3 days and 1, 2, 3, 4 and 8 weeks samples are analyzed by means of Raman spectroscopy.
The crystalline form B prepared according to Example A1 is stored at room temperature and 75% relative atmospheric humidity, and after 3 days and 1, 2, 3, 4 and 8 weeks samples are analyzed by means of Raman spectroscopy.

[9] = Hygroscopicity (general statement); type: physicochemical
[10] = Bioavailability (general statement)
[11] = 75% r.h. storage, then drying at 50° C. in vacuo for 7 days
[12] = 95% r.h. storage, then drying at 50° C. in vacuo for 7 days
[13] = after damp storage, 25° C., 75% relative atmospheric humidity, 7 days
[14] = after damp storage, 25° C., 95% relative atmospheric humidity, 7 days
[15] = 40° C./75% r.h., 1 week, fumarate
[16] = 60° C. (closed), 1 week, fumarate
[17] = 60° C. (closed), 4 weeks, fumarate
[18] = 60° C./75% r.h., 4 weeks, fumarate
[19] = 75% relative atmospheric humidity, after 8 weeks, fumarate

SMILES | WC (%) [1, 11] [%] | WC (%) [1, 12] [%] | change in the crystalline form (X-ray diffraction diagrams) [1] | WC (%) [1, 13] [%] | WC (%) [1, 14] [%] | DW (dry weight), starting value [1] [%] | WC (Karl Fischer water content), starting value [1] [%] | solubility in polar solvents [3] | HPLC [4, 15] [%] | HPLC [4, 16] [%] | HPLC [4, 17] [%] | HPLC [4, 18] [%] | stability at elevated temperature (in words) ([4]; fumarate) | HPLC ([4]; −18° C. (reference), 4 weeks) [%] | crystalline form after pressing to a tablet [5] | crystalline form present at the end of the DVS measurement [6] | water uptake ([6]; measurement cycle) | crystalline form after storage (Raman) [8, 19] | hygroscopicity [9] | further results
CN(C)C[C@@H]1CCCC[C@H]1c1cccc(O)c1.Cl [Hydrochloride, (+)-(1R,2R)-3-[2-(Dimethylamino)methyl-(cyclohex-1-yl)]-phenol hydrochloride] | 6.00 | 6.60 | no change | 8.50 | 8.50 | 6.35 | 8.00 | – | – | – | – | – | – | – | – | – | – | – | – | DW (%) [1, 11]: 6.12%; DW (%) [1, 12]: 6.74%; DW (%) [1, 13]: 5.92%; DW (%) [1, 14]: 7.84%; water uptake in total ([2]; 90% relative atmospheric humidity): about 5 wt. %; water uptake ([2]; relative atmospheric humidity increased to about 75%): about 2 wt. %; water released on desorption, in total ([2]; stepwise lowering of relative atmospheric humidity by 10%): 8.5%
CN(C)C[C@@H]1CCCC[C@H]1c1cccc(O)c1.O=C(O)/C=C/C(=O)O [crystalline form A, (+)-(1R,2R)-3-[2-(dimethylamino)methyl-(cyclohex-1-yl)]-phenol fumarate] | – | – | – | – | – | – | – | very good | 99.5 | 99.9 | 99.6 | 99.3 | very stable in respect of chemical stability and crystal form | 100 | mixture of the crystalline forms A and B | substantially the crystalline form B | about 0.2 wt. % | crystalline form B is also present | – | FT Raman (determination of the crystalline form) ([4]; 60° C. (closed), 1 week): A and B; FT Raman (determination of the crystalline form) ([4]; 60° C. (closed), 4 weeks): A and B; FT Raman (determination of the crystalline form) ([4]; −18° C. (reference), 4 weeks): A and B; crystalline form after trituration ([7]; listed as Example C3, fumarate): mixture of the crystalline form A and B; crystalline form after storage (Raman) ([8]; 75% relative atmospheric humidity, after 3 days): converted into the crystalline form B
CN(C)C[C@@H]1CCCC[C@H]1c1cccc(O)c1.O=C(O)/C=C/C(=O)O [crystalline form B, (+)-(1R,2R)-3-[2-(dimethylamino)methyl-(cyclohex-1-yl)]-phenol fumarate] | 0.30 | 0.30 | no change | 0.50 | 0.50 | 0 | 0.2 | very good | 100.0 | 99.0 | 100.6 | 99.1 | very stable in respect of chemical stability | 100 | mixture of the crystalline forms A and B | unchanged | about 0.2 wt. % | practically unchanged | not hygroscopic | crystalline form after grinding ([7]; fumarate): mixture of the crystalline forms A and B; crystalline form after grinding ([7]; listed as Example A1, fumarate): mixture of the crystalline form A and B; crystalline form after trituration ([7]; fumarate): unchanged; release of absorbed moisture on desorption ([2]; at about 10% relative atmospheric humidity): released again completely; water uptake ([2]; stepwise increase of relative atmospheric humidity by 10% to 90%): 0.13%
CN(C)CC1CCCCC1c1cccc(O)c1.O=C(O)/C=C/C(=O)O (centres unmarked) [3-[2-(dimethylamino)methyl-(cyclohex-1-yl)]-phenol fumarate] | – | – | – | – | – | – | – | – | – | – | – | – | – | – | – | – | – | – | not hygroscopic | solubility ([3]; particularly in polar and protic solvents, including water): good; bioavailability [10]: good
CN(C)CC1CCCCC1c1cccc(O)c1.Cl (centres unmarked) [3-[2-(dimethylamino)methyl-(cyclohex-1-yl)]-phenol hydrochloride, reference compound] | – | – | – | – | – | – | – | – | – | – | – | – | – | – | – | – | – | – | decidedly hygroscopic | –
CN(C)C[C@@H]1CCCC[C@H]1c1cccc(O)c1.O=C(O)/C=C/C(=O)O [amorphous form, (+)-(1R,2R)-3-[2-(dimethylamino)methyl-(cyclohex-1-yl)]-phenol fumarate] | – | – | – | – | – | – | – | – | – | – | – | – | – | – | – | crystalline form A | – | – | – | water uptake ([6]; up to about 77% relative atmospheric humidity): about 6.5 wt. %; form after storage ([8]; 22% relative atmospheric humidity and 25° C., after 2 months): still amorphous; crystalline form after storage ([8]; 22% relative atmospheric humidity, 2 months): still present; crystalline form after storage ([8]; 53% relative atmospheric humidity, 2 months): converted completely into the crystalline form B; crystalline form after storage ([8]; 75% relative atmospheric humidity, 5 days): converted completely into the crystalline form B; crystalline form after storage ([8]; 90% relative atmospheric humidity, 3 days): converted completely into the crystalline form B
